Assay results published in publication PMC10939098 (Emerging Microbes & Infections, 2024).
Substitutions are numbered along the chain they refer to. Converted amounts (≈) assume the structure as drawn.

T1: PER-1 (Pseudomonas aeruginosa, UniProt P37321)
T1 sequence (P37321 27-308): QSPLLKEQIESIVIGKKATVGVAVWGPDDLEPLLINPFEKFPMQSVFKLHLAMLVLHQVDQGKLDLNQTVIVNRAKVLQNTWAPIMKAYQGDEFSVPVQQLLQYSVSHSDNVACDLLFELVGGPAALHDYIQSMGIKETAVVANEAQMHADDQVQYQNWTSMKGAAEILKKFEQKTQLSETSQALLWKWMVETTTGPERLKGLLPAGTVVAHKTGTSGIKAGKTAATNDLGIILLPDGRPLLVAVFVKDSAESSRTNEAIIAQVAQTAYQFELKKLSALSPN

T2: PER-4 (Pseudomonas aeruginosa, UniProt P37321, S135T)
T2 sequence (P37321 27-308 S135T): T1 sequence (P37321 27-308) with S109T

B1: PER-1 (Pseudomonas aeruginosa) (protein)
chain: T1 sequence (P37321 27-308)

Legend:
[1] = tested on: PER-producing P. aeruginosa clinical isolates; assay: microbe, parasite or virus in culture; assay type: cell-based, Pseudomonas aeruginosa; conditions: for MIC range / % resistance: 56 PER-producing PA strains; for % resistance: share of isolates resistant; for MIC50 / MIC90 / MIC: Pseudomonas aeruginosa
[2] = tested on: PAO1 transconjugants carrying blaPER-1 plasmids; assay: Broth microdilution MIC, transconjugants and recipient PAO1-Rrif; assay type: cell-based; conditions: Pseudomonas aeruginosa
Recombinant PAO1 strains = assay: Broth microdilution MIC, recombinant PAO1 strains carrying blaPER; assay type: cell-based; conditions: Pseudomonas aeruginosa
PER-1 = biological target: T1, PER-1; assay: Steady-state enzyme kinetics, purified PER-1; assay type: biochemical; conditions: PER-1
PER-4 = biological target: T2, PER-4; assay: Steady-state enzyme kinetics, purified PER-4; assay type: biochemical
[3] = substrate: CC(C)(O/N=C(\C(=O)N[C@@H]1C(=O)N2C(C(=O)[O-])=C(C[n+]3ccccc3)CS[C@H]12)c1csc(N)n1)C(=O)O; assay: Steady-state enzyme kinetics, purified PER-1; assay type: biochemical, Pseudomonas aeruginosa; conditions: other: PER-1, room temperature, 1×PBS pH 7.2
[4] = substrate: O=C(Cc1cccs1)N[C@@H]1C(=O)N2C(C(=O)O)=C(/C=C/c3ccc([N+](=O)[O-])cc3[N+](=O)[O-])CS[C@H]12; assay: Steady-state enzyme kinetics, purified PER-1; assay type: biochemical, Pseudomonas aeruginosa; conditions: other: PER-1, room temperature, 1×PBS pH 7.2
[5] = PAO1, transconjugant PAO1/pPA272
[6] = PAO1, transconjugant PAO1/pPA1018
[7] = PAO1, recipient strain PAO1-R^rif
[8] = PAO1, transconjugant PAO1/pPA268
[9] = PAO1, transconjugant PAO1/pPA282
[10] = PAO1, transconjugant PAO1/pPA975
[11] = PAO1, transconjugant PAO1/pPA1017
[12] = PAO1, strain PAO1-pGK1900 (empty vector)

| Molecule | % resistance [1] [%] | MIC50 [1] [µg/mL] | MIC90 [1] [µg/mL] | MIC ([1]; isolate PA268) [µg/mL] | MIC ([1]; isolate PA272) [µg/mL] | MIC ([1]; isolate PA282) [µg/mL] | MIC ([1]; isolate PA975) [µg/mL] | MIC ([1]; isolate PA1017) [µg/mL] | MIC ([1]; isolate PA1018) [µg/mL] | MIC [2, 5] [µg/mL] | MIC [2, 6] [µg/mL] | MIC (Recombinant PAO1 strains; PAO1) [µg/mL] | MIC [2, 7] [µg/mL] | MIC [2, 8] [µg/mL] | MIC [2, 9] [µg/mL] | MIC [2, 10] [µg/mL] | MIC [2, 11] [µg/mL] | MIC (Recombinant PAO1 strains; [12]) [µg/mL] | MIC (Recombinant PAO1 strains; PAO1, strain PAO1-pGK1900-PER1) [µg/mL] | MIC (Recombinant PAO1 strains; PAO1, strain PAO1-pGK1900-PER4) [µg/mL] | further results |
| --- | --- | --- | --- | --- | --- | --- | --- | --- | --- | --- | --- | --- | --- | --- | --- | --- | --- | --- | --- | --- | --- |
| C[C@@H](O)[C@H]1C(=O)N2C(C(=O)O)=C(SCCN=CN)C[C@H]12 [IPM, imipenem] | 92.86 | 16 (≈ 53.4 µM) | 32 (≈ 107 µM) | 16 (≈ 53.4 µM) | 16 (≈ 53.4 µM) | 16 (≈ 53.4 µM) | 16 (≈ 53.4 µM) | 32 (≈ 107 µM) | 32 (≈ 107 µM) | 2 (≈ 6.68 µM) | 32 (≈ 107 µM) | 1 |  |  |  |  |  |  |  |  | MIC range [1]: 0.5 to 64 µg/mL; imipenem hydrolysis activity (PER-1): hardly any detectable; imipenem hydrolysis activity (PER-4): hardly any detectable |
| CC(C)(O/N=C(\C(=O)N[C@@H]1C(=O)N2C(C(=O)[O-])=C(C[N+]3(CCNC(=O)c4ccc(O)c(O)c4Cl)CCCC3)CS[C@H]12)c1csc(N)n1)C(=O)O [CFDC, Cefiderocol] |  |  |  | 2 (≈ 2.66 µM) | 2 (≈ 2.66 µM) | 2 (≈ 2.66 µM) | 1 (≈ 1.33 µM) | 2 (≈ 2.66 µM) | 1 (≈ 1.33 µM) | 2 (≈ 2.66 µM) |  | 1 | 0.5 (≈ 0.665 µM) | 2 (≈ 2.66 µM) | 2 (≈ 2.66 µM) | 2 (≈ 2.66 µM) | 2 (≈ 2.66 µM) | 0.5 | 2 | 2 |  |
| C[C@H]1COc2c(N3CCN(C)CC3)c(F)cc3c(=O)c(C(=O)O)cn1c23 [LEV, levofloxacin] | 82.14 | 16 (≈ 44.3 µM) | 32 (≈ 88.6 µM) |  |  |  |  |  |  |  |  |  |  |  |  |  |  |  |  |  | MIC range [1]: 0.5 to 64 µg/mL |
| NCC[C@H](O)C(=O)N[C@@H]1C[C@H](N)[C@@H](O[C@H]2O[C@H](CN)[C@@H](O)[C@H](O)[C@H]2O)[C@H](O)[C@H]1O[C@H]1O[C@H](CO)[C@@H](O)[C@H](N)[C@H]1O [AMK, amikacin] | 94.64 | > 128 | > 128 |  |  |  |  |  |  |  |  |  |  |  |  |  |  |  |  |  |  |
| CO/N=C(\C(=O)N[C@@H]1C(=O)N2C(C(=O)[O-])=C(C[N+]3(C)CCCC3)CS[C@H]12)c1csc(N)n1 [FEP, cefepime] |  |  |  |  |  |  |  |  |  | 128 (≈ 266 µM) | 128 (≈ 266 µM) | 1 | 2 (≈ 4.16 µM) | 128 (≈ 266 µM) | 128 (≈ 266 µM) | 64 (≈ 133 µM) | 128 (≈ 266 µM) | 4 | > 128 | > 128 |  |
| C[C@H]1[C@H](NC(=O)/C(=N\OC(C)(C)C(=O)O)c2csc(N)n2)C(=O)N1S(=O)(=O)O [AZT, aztreonam] |  |  |  |  |  |  |  |  |  | > 128 | > 128 | 4 | 2 (≈ 4.59 µM) | > 128 | > 128 | > 128 | > 128 | 8 | > 128 | > 128 |  |
| CCN1CCN(C(=O)N[C@@H](C(=O)N[C@@H]2C(=O)N3[C@@H]2SC(C)(C)[C@@H]3C(=O)O)c2ccccc2)C(=O)C1=O [PIP, piperacillin] | 98.21 | > 128 | > 128 | > 128 | > 128 | > 128 | 128 (≈ 247 µM) | > 128 | > 128 | > 128 | > 128 | 4 |  | > 128 | > 128 | 128 (≈ 247 µM) | 128 (≈ 247 µM) |  | 32 | 16 |  |
| B1 |  |  |  |  |  |  |  |  |  |  |  |  |  |  |  |  |  |  |  |  | Km [3]: 668.75 µM; kcat [3]: 537 s⁻¹; Km [4]: 72.92 µM; kcat [4]: 512 s⁻¹ |
